According to paper PMC3169413 (Acta Crystallographica Section F: Structural Biology and …, 2011):

Assays:
[1] = biological target: FumC (fumarate hydratase) from R. prowazekii (Rickettsia prowazekii, UniProt Q9ZCQ4); details: active site; product analog; from crystallization precipitant, 1.4 M sodium malonate pH 6.0, 289 K; one malonate per protomer
[2] = biological target: the molecule itself; assay: crystal structure

Row | Molecule | X-ray crystal structure, 2.4 A [1] | binding result [2]
1 | O=C(O)CC(=O)O [malonate] | The R. prowazekii FumC structure was determined in complex with the product analog malonate. | 
2 | fumarate hydratase (FumC) from Rickettsia prowazekii strain Madrid E (enzyme, also called fumarase; class II fumarate hydratase) MKNYRIESDSFGEIQIEEKFYWGAQTQRSLNNFKISKQKMPKILIRALAILKKCAAQVNYEFGDLEYKIATSIDKAIDRILAGEFEDNFPLVVWQTGSGTQTNMNMNEVIASIANEELTGKKGGKFPVHPNDHVNKGQSSNDSFPTAMHIATVLATKQQLIPALNNLLTYLQDKSKDWDKIIKIGRTHLQDATPLTLKQEFSGYITQIEYALERIEDALKKVYLLAQGGTAVGTGINSKIGFDIKFAQKVAEFTQQPFKTAPNKFESLAAHDALVEFSGTLNTIAVSLMKIANDIRLLGSGPRCGLGELHLPENEPGSSIMPGKVNPTQVEALTMVCTQVMGNHVTVTIAGSNGHLELNVFKPVIIYNILQSIELLSDSVNSFVTHCVKGLEPNIARINTLRDKSLMLVTVLNPHIGYDNAAKIAKEAHKYGITLKEAAKKLNFLSEEEFDKIVVPEKMIS |  | binds
